Measured values from ChEMBL document CHEMBL4888484, “Replenishing the malaria drug discovery pipeline: Screening and hit evaluation of the MMV Hit Generation Library 1 (HGL1) against asexual blood stage Plasmodium falciparum ,using a nano luciferase reporter read-out” (2022).

Tests used:
[1] = tested on: Plasmodium falciparum; assay: Hit confirmation in dose-response curve in Dd2 pLDH assay, at 72h; format: functional, organism-based; design: timepoint 72 hour; conditions: Dd2, Erythrocyte
[2] = tested on: Plasmodium falciparum; assay: Hit confirmation in dose-response curve in NF54 nanoGlo assay, at 12h; format: functional, organism-based, Erythrocyte; design: timepoint 12 hour
[3] = Hit confirmation in dose-response curve in HepG2 cytotoxicity assay, at 72h; format: toxicity, cell-based; design: timepoint 72 hour; conditions: human, HepG2 cells
[4] = tested on: Plasmodium falciparum; assay: Hit confirmation in dose-response curve in NF54 nanoGlo assay, at 72h; format: functional, organism-based, Erythrocyte; design: timepoint 72 hour
[5] = tested on: Plasmodium falciparum; assay: Hit confirmation in dose-response curve in NF54 pLDH assay, at 72h; format: functional, organism-based; design: timepoint 72 hour; conditions: NF54, Erythrocyte
[6] = Plasmodium falciparum, NF54, Erythrocyte, 12 h
[7] = Plasmodium falciparum, NF54, Erythrocyte, 72 h

Row | SMILES | IC50 [1] [nM] | IC50 [2, 6] [nM] | IC50 [4, 7] [nM] | IC50 [5] [nM] | IC50 ([2]; erythrocyte) [nM] | IC50 ([4]; erythrocyte) [nM] | IC50 at 72 h [3] [nM]
1 | COc1ccc(-[n+]2c(-c3ccccc3)cn3c2CCC3)cc1 | 776 | > 10000 | 794 | 1410 |  |  | > 10000
2 | COc1ccc(-c2c[n+](-c3ccc(Cl)cc3)c3n2CCCCC3)cc1 | 1000 | > 10000 | 1380 | 2240 |  |  | > 10000
3 | CC[n+]1c(/C=C/N(C)c2ccccc2)oc2ccccc21 | 661 | > 10000 | 724 | 741 |  |  | > 10000
4 | COc1ccc(-[n+]2c(-c3ccc(-c4ccccc4)cc3)cn3c2COCC3)cc1 | 2090 | > 10000 | 2140 | 2400 |  |  | > 10000
5 | O=c1[nH]c(=O)n(S(=O)(=O)c2ccccc2)cc1F | > 10000 | 2040 | 2.75 | 3.47 |  |  | > 10000
6 | c1ccc(-c2nc(C[n+]3ccc4c(c3)CCCC4)cs2)cc1 | 832 | > 10000 | 1200 | 89.1 |  |  | > 10000
7 | COc1ccc(CCNc2oc(-c3cccnc3)nc2C#N)cc1OC | > 10000 | 2400 | 3980 | > 10000 |  |  | > 10000
8 | Nc1nc2c(s1)CN(CCc1ccccc1)CC2 | 5620 | > 10000 | 3980 | 6920 |  |  | > 10000
9 | COc1ccccc1C1c2[nH]c3ccccc3c2C[C@H]2C(=O)N(CC(O)c3ccccc3)CC(=O)N12 (some centres undefined) | > 10000 | 4470 | 3160 | 8910 |  |  | > 10000
10 | C[C@@H](CNc1nc(-c2ccccc2)nc2nc(-c3ccc(Cl)cc3)oc12)N1CCCCC1 | 5890 | 9550 | 3390 | 7590 |  |  | > 10000
11 | Cc1ccc2nc(-c3cc4ccccc4o3)cn2c1 | 2690 | > 10000 | 2040 | 3020 |  |  | > 10000
12 | C[n+]1ccccc1/C=C/c1c[nH]c2ccccc12 | 437 | 5010 | 407 | 676 |  |  | 7940
13 | Cc1cc(=O)c(OCC(=O)N2CCN([C@@H](c3ccccc3)c3ccc(Cl)cc3)CC2)c[nH]1 | 3470 | > 10000 | 1860 | 5010 |  |  | > 10000
14 | N#Cc1nc2c(C#N)c(N)n(CCc3ccccc3)c2nc1C#N | 1450 | 2040 | 1380 | 347 |  |  | > 10000
15 | c1ccc2c[n+](Cc3ccc4ccccc4n3)ccc2c1 | 2450 | > 10000 | 1950 | 2570 |  |  | > 10000
16 | COc1cccc(-c2nc(C)c(C(=O)Nc3n[nH]c(CC(C)C)n3)s2)c1 | > 10000 | 794 | 676 | > 10000 | 631 | 1170 | > 10000
17 | Cc1nn(-c2ccccn2)c(O)c1C(c1ccccc1)c1c(C)nn(-c2ccccn2)c1O | 3550 | 1000 | 1020 | 5500 |  |  | > 10000
18 | CN1CCCN(c2ccnc3ccsc23)CC1 | 2450 | 3800 | 2950 | 3800 |  |  | > 10000
19 | Cn1ccnc1[C@@H]1CCCN1Cc1nccn1Cc1ccccc1 | 3240 | 6760 | 2090 | 2820 |  |  | > 10000

Second part, led by results:

Row | IC50 [1] [nM] | IC50 [2, 6] [nM] | IC50 [4, 7] [nM] | IC50 [5] [nM] | IC50 ([2]; erythrocyte) [nM] | IC50 ([4]; erythrocyte) [nM] | SMILES | IC50 at 72 h [3] [nM]
20 | 2750 | 2690 | 1150 | 5130 |  |  | CCOc1ccc(C2c3[nH]c4ccccc4c3C[C@H]3C(=O)N(C4CCN(Cc5ccccc5)CC4)CC(=O)N23)cc1OC (some centres undefined) | > 10000
21 | > 10000 | > 10000 | > 10000 | > 10000 |  |  | CCOc1cc(CNc2cccc3ccccc23)cc(Br)c1OCC(=O)NC(C)(C)C | > 10000
22 | 1480 | > 10000 | 1410 | 2340 |  |  | COc1ccc(C(=O)C[n+]2cc(-c3ccc(OC)cc3)n3c2CCCC3)cc1 | > 10000
23 | 646 | 9550 | 537 | 759 |  |  | COc1ccc(C(=O)C[n+]2nc(CNc3ccc(Br)cc3)n3c2CCCCC3)cc1 | > 10000
24 |  | 3160 |  |  |  |  | NC(=O)C1CCN(CCC(=O)N2CCc3cc4ccc3[C@@H]2c2cccc(c2)OCCCNC(=O)c2cc(ccc2O)O4)CC1 | > 10000
25 | 2690 | > 10000 | 2240 | 4680 |  |  | CC[N+](C)(CC)CCOc1cc(C)c2ccccc2n1 | > 10000
26 | > 10000 | 11000 | 3160 | > 10000 |  |  | COc1ccc(C(=O)Nc2ccc3c(c2)C(=O)Nc2cccnc2O3)cc1OC | > 10000
27 | 1380 | 3980 | 1510 | 2450 |  |  | CN(C)CC(O)COc1ccc(S(=O)(=O)c2ccc(OCC(O)CN(C)C)c(Cl)c2)cc1Cl (centres undefined) | > 10000
28 | > 10000 | > 10000 | 661 | 891 |  |  | COC[C@H](NCCc1cc(F)cc2c1OCOC2)C1CC1 | > 10000
29 | 1200 | 5010 | 955 | 2340 |  |  | CC(C)[C@@H]1CC[C@H](C)C[C@H]1OC(=O)Cn1cc(-c2ccc(Cl)cc2)[n+]2c1CCC2 | > 10000
30 | > 10000 | 676 | 1450 | > 10000 |  |  | COc1ccc(CCc2nc(NC(=O)c3nc(C)sc3C)n[nH]2)cc1OC | > 10000
31 | 2880 | 3980 | 1550 | 3800 |  |  | COc1ccc2[nH]c3c(c2c1)CC(C(=O)O)NC3c1ccc(OC)c(CN2CCN(c3ccccc3F)CC2)c1 (centres undefined) | > 10000
32 | 2190 | 4680 | 1820 | 2820 |  |  | CC[N+](CC)(CC(=O)OC1CC2CCC1(C)C2(C)C)CC(=O)OC1CC2CCC1(C)C2(C)C (centres undefined) | > 10000
33 | 2040 | > 10000 | 2040 | 2820 |  |  | C[N+]12CCCCC1C(OC(=O)C1(c3ccccc3)CCCC1)CCC2 (centres undefined) | > 10000
34 | 2630 | 6310 | 5010 | 3630 |  |  | CCOC1CC(NC2CC(c3ccc(F)cc3)C2)C12CCC2 (centres undefined) | > 10000
35 | 2750 | 1380 | 1450 | 3470 |  |  | CCCN1C(=O)c2ccccc2N2C(=O)CC[C@@]12C(=O)Nc1ccc(OC)cc1 | > 10000
36 | 2880 | 1660 | 1100 | 4170 |  |  | CCCN1C(=O)c2ccccc2N2C(=O)CC[C@@]12C(=O)Nc1ccccc1 | > 10000
37 | > 10000 | 8910 | 4070 | > 10000 |  |  | COc1ccc(CCNC(=O)C2CCN(c3nccn4nc5c(c34)CCCC5)CC2)cc1OC | > 10000
